Source: patent US20150352108A1, “AMINO-PYRIMIDINE COMPOUNDS AS INHIBITORS OF TBK1 AND/OR IKK EPSILON” (Alzheimer's Institute of America, priority 2009, published 2015)

How the values were obtained:
IKKε = biological target: T1, IKKε (Homo sapiens, UniProt Q14164); assay: In-vitro IKKε kinase assay ([γ33]ATP filter-plate); type: biochemical; details: text bins; read-out: IC50 for inhibition of the kinase activity of IKKε
T1 construct: His-tag; made in house; host or cells: Sf9 insect cells
T1 sequence (Q14164 1-716): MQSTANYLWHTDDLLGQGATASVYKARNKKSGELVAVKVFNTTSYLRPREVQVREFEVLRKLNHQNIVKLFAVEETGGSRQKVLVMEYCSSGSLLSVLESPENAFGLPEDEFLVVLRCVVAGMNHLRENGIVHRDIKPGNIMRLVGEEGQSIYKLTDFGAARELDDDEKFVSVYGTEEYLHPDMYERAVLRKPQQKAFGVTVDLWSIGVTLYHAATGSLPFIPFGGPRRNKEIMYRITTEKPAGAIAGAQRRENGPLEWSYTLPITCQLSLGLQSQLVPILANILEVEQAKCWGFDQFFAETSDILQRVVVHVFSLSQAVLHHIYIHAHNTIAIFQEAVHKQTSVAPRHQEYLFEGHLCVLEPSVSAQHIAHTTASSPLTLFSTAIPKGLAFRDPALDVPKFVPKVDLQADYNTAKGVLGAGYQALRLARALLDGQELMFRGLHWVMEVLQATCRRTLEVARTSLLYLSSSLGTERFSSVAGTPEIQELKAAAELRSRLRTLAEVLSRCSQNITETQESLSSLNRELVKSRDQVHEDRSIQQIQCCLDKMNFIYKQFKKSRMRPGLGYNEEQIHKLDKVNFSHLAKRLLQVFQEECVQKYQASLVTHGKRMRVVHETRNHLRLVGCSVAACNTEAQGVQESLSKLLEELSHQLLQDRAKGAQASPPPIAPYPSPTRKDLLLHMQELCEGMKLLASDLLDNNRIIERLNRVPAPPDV
Procedure, shortened: (§1)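 His-tagged IKKε and TBK1 from Sf9 cells were assayed with myelin basic protein or casein and [γ33]ATP at 2×Km ATP (32 μM for IKKε, 60 μM for TBK1). Enzyme was 0.1 or 0.015 μg/ml for IKKε and 0.1 or 0.02 μg/ml for TBK1 (normal/sensitized). Reactions ran 30-45 min, were filter-captured, scintillation-counted, and normalized to DMSO after background subtraction.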

TBK1 = biological target: T2, TBK1 (Homo sapiens, UniProt Q9UHD2); assay: In-vitro TBK1 kinase assay ([γ33]ATP filter-plate); type: biochemical; details: text bins; read-out: IC50 for inhibition of the kinase activity of TBK1
T2 construct: His-tag; made in house; host or cells: Sf9 insect cells
T2 sequence (Q9UHD2 1-729): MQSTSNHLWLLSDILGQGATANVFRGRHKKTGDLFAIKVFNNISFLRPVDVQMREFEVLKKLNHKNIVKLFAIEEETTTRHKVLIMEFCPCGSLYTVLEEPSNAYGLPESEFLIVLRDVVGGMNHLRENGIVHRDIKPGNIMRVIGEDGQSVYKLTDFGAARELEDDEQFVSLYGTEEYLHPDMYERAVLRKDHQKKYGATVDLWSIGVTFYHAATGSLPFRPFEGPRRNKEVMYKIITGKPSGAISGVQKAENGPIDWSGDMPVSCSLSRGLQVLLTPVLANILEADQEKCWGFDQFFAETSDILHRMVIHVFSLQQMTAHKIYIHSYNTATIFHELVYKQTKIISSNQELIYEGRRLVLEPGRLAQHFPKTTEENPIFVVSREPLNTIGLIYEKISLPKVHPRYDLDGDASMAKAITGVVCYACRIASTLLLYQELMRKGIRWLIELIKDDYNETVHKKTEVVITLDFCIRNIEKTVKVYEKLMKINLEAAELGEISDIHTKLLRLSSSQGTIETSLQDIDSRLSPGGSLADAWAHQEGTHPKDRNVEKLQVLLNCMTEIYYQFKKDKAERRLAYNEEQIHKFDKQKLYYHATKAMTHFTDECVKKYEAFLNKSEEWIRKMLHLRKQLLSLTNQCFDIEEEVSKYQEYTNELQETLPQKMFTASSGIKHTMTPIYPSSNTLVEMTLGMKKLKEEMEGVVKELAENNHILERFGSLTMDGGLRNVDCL
Procedure, shortened: as §1

Row | IC50 (IKKε) [µM] | IC50 (TBK1) [µM] | SMILES
1 | 0.005 to 0.05 | 0.01 to 0.1 | COc1cc(N)cc(Nc2nccc(-c3ccc(OC)c(C#N)c3)n2)c1 [compound 358, 5-{2-[(3-Amino-5-methoxyphenyl)amino]pyrimidin-4-yl}-2-methoxybenzonitrile]
2 | 0.005 to 0.05 | 0.01 to 0.1 | COc1cc(NC(=O)NC[C@H](C)O)cc(Nc2nccc(-c3ccc(OC)c(C#N)c3)n2)c1 [compound 359, 1-(3-{[4-(3-Cyano-4-methoxyphenyl)pyrimidin-2-yl]amino}-5-methoxyphenyl)-3-[(2S)-2-hydroxypropyl]urea]
3 | 0.005 to 0.05 | 0.01 to 0.1 | COc1ccc(-c2ccnc(Nc3ccc(NC(C)=O)cc3)n2)cc1C#N [compound 361, N-(4-{[4-(3-Cyano-4-methoxyphenyl)pyrimidin-2-yl]amino}phenyl) acetamide]
4 | 0.005 to 0.05 | 0.01 to 0.1 | COc1ccc(-c2ccnc(Nc3ccc(S(=O)(=O)NCCN)c(OC)c3)n2)cc1C#N [compound 366, N-(2-Aminoethyl)-4-{[4-(3-cyano-4-methoxyphenyl)pyrimidin-2-yl]amino}-2-methoxybenzene-sulfonamide]
5 | < 0.005 | < 0.01 | C[C@H](O)C(=O)N1CCC(Oc2ccc(-c3ccnc(Nc4ccc(C(=O)NCCN(C)C)cc4)n3)cc2C#N)CC1 [compound 367, 4-({4-[3-cyano-4-({1-[(2S)-2-hydroxypropanoyl]piperidin-4-yl}oxy)phenyl]pyrimidin-2-yl}amino)-N-[2-(dimethylamino)ethyl]benzamide]
6 | 0.005 to 0.05 | 0.01 to 0.1 | COc1ccc(-c2ccnc(Nc3ccc(OC)c(OCCN4CCOCC4)c3)n2)cc1C#N [compound 368, 2-Methoxy-5-[2-({4-methoxy-3-[2-(morpholin-4-yl)ethoxy]phenyl}amino)pyrimidin-4-yl]benzonitrile]
7 | < 0.005 | < 0.01 | COc1ccc(-c2ccnc(Nc3ccc(N4CCNC(=O)C4)c(OC)c3)n2)cc1C#N [compound 370, 2-Methoxy-5-(2-{[3-methoxy-4-(3-oxopiperazin-1-yl)phenyl]amino}pyrimidin-4-yl)benzonitrile]
8 | 0.005 to 0.05 | 0.01 to 0.1 | COc1ccc(-c2ccnc(Nc3cccc(NC(=O)N4CC[C@@H](O)C4)c3)n2)cc1C#N [compound 372, (3R)-N-(3-{[4-(3-Cyano-4-methoxyphenyl)pyrimidin-2-yl]amino}phenyl)-3-hydroxypyrrolidine-1-carboxamide]
9 | 0.005 to 0.05 | 0.01 to 0.1 | COc1ccc(-c2ccnc(Nc3ccc(S(=O)(=O)NCCCN(C)C)c(OC)c3)n2)cc1C#N [compound 375, 4-{[4-(3-Cyano-4-methoxyphenyl)pyrimidin-2-yl]amino}-N-[3-(dimethylamino)propyl]-2-methoxybenzene-sulfonamide]
10 | < 0.005 | < 0.01 | COc1cc(Nc2nccc(-c3ccc(OC4CCN(C(=O)[C@H](C)O)CC4)c(C#N)c3)n2)ccc1C(=O)NCCCN(C)C [compound 376, 4-({4-[3-cyano-4-({1-[(2S)-2-hydroxypropanoyl]piperidin-4-yl}oxy)phenyl]pyrimidin-2-yl}amino)-N-[3-(dimethylamino)propyl]-2-methoxybenzamide]
11 | 0.005 to 0.05 | 0.01 to 0.1 | COc1cc(NC(=O)N2CC[C@@H](O)C2)cc(Nc2nccc(-c3ccc(OC)c(C#N)c3)n2)c1 [compound 378, (3R)-N-(3-{[4-(3-Cyano-4-methoxyphenyl)pyrimidin-2-yl]amino}-5-methoxyphenyl)-3-hydroxypyrrolidine-1-carboxamide]
12 | 0.005 to 0.05 | 0.01 to 0.1 | COc1ccc(-c2ccnc(Nc3ccc(S(=O)(=O)NCCCN)c(OC)c3)n2)cc1C#N [compound 383, N-(3-Aminopropyl)-4-{[4-(3-cyano-4-methoxyphenyl)pyrimidin-2-yl]amino}-2-methoxybenzene-sulfonamide]
13 | < 0.005 | < 0.01 | COc1cc(Nc2nccc(-c3ccc(OC4CCOCC4)c(C#N)c3)n2)ccc1S(=O)(=O)N1CCCC1 [compound 394, 5-(2-{[3-methoxy-4-(pyrrolidin-1-ylsulfonyl)phenyl]amino}pyrimidin-4-yl)-2-(tetrahydro-2H-pyran-4-yloxy)benzonitrile]
14 | < 0.005 | < 0.01 | CNCCCNS(=O)(=O)c1ccc(Nc2nccc(-c3ccc(OC4CCOCC4)c(C#N)c3)n2)cc1OC [compound 396]
15 | < 0.005 | < 0.01 | COc1cc(Nc2nccc(-c3ccc(OC4CCOCC4)c(C#N)c3)n2)ccc1S(=O)(=O)N(C)CCCN(C)C [compound 397]

More lines, now with the values behind:

Row | SMILES | IC50 (IKKε) [µM] | IC50 (TBK1) [µM]
16 | N#Cc1cc(-c2ccnc(Nc3ccc(S(=O)(=O)N4CCOCC4)cc3)n2)ccc1OC1CCOCC1 [compound 363, 5-(2-{[4-(morpholin-4-ylsulfonyl)phenyl]amino}pyrimidin-4-yl)-2-(tetrahydro-2H-pyran-4-yloxy)benzonitrile] | 0.005 to 0.05 | < 0.01
17 | N#Cc1cccc(-c2ccnc(Nc3cccc(S(N)(=O)=O)c3)n2)c1 [compound 373] | < 0.005 | 0.01 to 0.1
18 | N#Cc1cc(-c2ccnc(Nc3ccc(N4CCOCC4)c(Cl)c3)n2)ccc1OC1CCOCC1 [compound 374, 5-(2-{[3-chloro-4-(morpholin-4-yl)phenyl]amino}pyrimidin-4-yl)-2-(tetrahydro-2H-pyran-4-yloxy)benzonitrile] | < 0.005 | < 0.01
19 | COc1cc(NC(=O)NCCO)cc(Nc2nccc(-c3ccc(OC4CCN(C(C)=O)CC4)c(C#N)c3)n2)c1 [compound 380] | 0.005 to 0.05 | 0.01 to 0.1
20 | N#Cc1cccc(-c2ccnc(Nc3ccc4[nH]ncc4c3)n2)c1 [compound 387, 3-[2-(1H-Indazol-5-ylamino)pyrimidin-4-yl]benzonitrile] | 0.005 to 0.05 | 0.1 to 0.5
21 | COc1cccc(Nc2nccc(-c3cccc(C#N)c3)n2)c1 [compound 389, 3-{2-[(3-Methoxyphenyl)amino]pyrimidin-4-yl}benzonitrile] | 0.05 to 0.5 | 0.1 to 0.5
22 | COc1ccc(Nc2nc(-c3cccc(C#N)c3)c3nc[nH]c3n2)cc1OC [compound 390, 3-{2-[(3,4-Dimethoxyphenyl)amino]-3H-purin-6-yl}benzonitrile] | 0.05 to 0.5 | 0.1 to 0.5
23 | N#Cc1cc(-c2ccnc(Nc3ccc(CS(=O)(=O)N4CCCC4)cc3)n2)ccc1OC1CCOCC1 [compound 403, 5-[2-({4-[(Pyrrolidin-1-ylsulfonyl)methyl]phenyl}amino)pyrimidin-4-yl]-2-(tetrahydro-2H-pyran-4-yloxy)benzonitrile] | < 0.005 | < 0.01
24 | N#Cc1cc(-c2ccnc(Nc3cccc(CC(=O)NCCCN4CCOCC4)c3)n2)ccc1OC1CCOCC1 [compound 407, 2-[3-({4-[3-Cyano-4-(tetrahydro-2H-pyran-4-yloxy)phenyl]pyrimidin-2-yl}amino)phenyl]-N-[3-(morpholin-4-yl)propyl]acetamide] | 0.005 to 0.05 | < 0.01
25 | CCN(CC)CCN(CC)C(=O)Cc1cccc(Nc2nccc(-c3ccc(OC4CCOCC4)c(C#N)c3)n2)c1 [compound 409, 2-[3-({4-[3-Cyano-4-(tetrahydro-2H-pyran-4-yloxy)phenyl]pyrimidin-2-yl}amino)phenyl]-N-[2-(diethylamino)ethyl]-N-ethylacetamide] | 0.005 to 0.05 | < 0.01
26 | Cc1ccc(Nc2nccc(-c3ccc(NC(=O)C(C)C)c(C#N)c3)n2)cc1OCCCN1CCOCC1 [compound 410] | 0.005 to 0.05 | 0.01 to 0.1
